From patent US12357644B2, “Acetyl salicylic acid composition for intravenous administration, its storage, production and use” (HYLORIS DEVELOPMENTS SA, priority 2022, dated 2025)
“And” between values parts separate entries of the source, which are not always exact repeats. Identical values can stand only once.

How the values were obtained:
[1] = cited from earlier work
[2] = Reconstitution testing of ASA in buffer diluents; format: physicochemical; settings: gamma irradiated ASA
Method: The material produced in the radiation and spray drying experiments was tested in reconstitution studies and compared to non-sterile, crystalline acetyl salicylic acid.
The buffer systems were tested for reconstitution of 325.0 mg gamma irradiated acetyl salicylic acid powder in 5 or 10 ml reconstitution fluid. Different buffer strengths were screened. […]

[3] = Salicylic acid content in sample solutions kept at benchtop; format: physicochemical; settings: for Average conc. salicylic acid: no pH adjustment; for Average conc. salicylic acid / Average conc. of salicylic acid: benchtop
Method: In addition, storage stability screenings were conducted. The solutions prepared as previously described, were kept on a benchtop at 24+/−3° C. and 70% relative humidity. For media with no pH adjustment, the degradation of ASA is higher in ethanol as compared to the other media in the test (see Table 8). For media with pH adjustment, degradation of ASA in acidified TBA, acidified water and acidified water with mannitol were almost similar. Degradation in acidified TBA was higher than in acidified ethanol at 24+/−3° C. and 70% relative humidity (see Table 9).
It was observed that acidified ethanol has the highest solubility and stability. […] The finding of up to 72 hours stability is critical, because it allows manipulations during the manufacturing process and a manufacturing run of up to 3 days.

[4] = Terminal sterilization by autoclaving, degradation of ASA; format: physicochemical; settings: autoclaving at 121° C. for 20 mins
Method: In yet another alternative, the first component comprises an autoclaved terminally sterilized acetyl salicylic acid particulate powder. The terminally sterilized material may be obtained by autoclaving at 121° C. for 20 mins.
Alternatively, the first component was prepared by filling acetyl salicylic acid into vials and terminally sterilizing the ASA filled vials for 20 minutes at 121° C. A skilled person would not expect that a two-component system can be based on autoclaved ASA due to an expected incompatibility with heat.

[5] = buffer —, purified water Ad 10 g, 10 mL

**Q.** Which results are given for `CC(=O)Oc1ccccc1C(=O)O` [ASA, Acetyl salicylic acid]?
**A.** solubility ([1]; above pH 5.5): above 100 mg/ml; solubility in water ([1]; water): about 0.3%; pH after reconstitution ([2]; Carbonate - NaOH 0.15M): 6.254; 325 mg ASA dissolves? ([2]; Carbonate - NaOH 0.2M, 10 mL): YES -; pH after reconstitution ([2]; Carbonate - NaOH 0.2M, 10 mL): 9.160; 325 mg ASA dissolves? ([2]; Carbonate - NaOH 0.25, 10 mL): YES -; pH after reconstitution ([2]; Carbonate - NaOH 0.25, 10 mL): 9.646; Time needed to dissolve (±) ([2]; Carbonate - NaOH 0.25, 10 mL, (3 min) + <1 min): <1 min; 325 mg ASA dissolves? ([2]; Carbonate - NaOH 0.5M, 5 mL): YES -; Time needed to dissolve (±) ([2]; Carbonate - NaOH 0.5M, 5 mL): 3 min; pH after reconstitution ([2]; Carbonate - NaOH 0.5M, 5 mL): 7.534; 325 mg ASA dissolves? ([2]; Carbonate - NaOH 1M, 5 mL): YES -; Time needed to dissolve (±) ([2]; Carbonate - NaOH 1M, 5 mL): <3 min; pH after reconstitution ([2]; Carbonate - NaOH 1M, 5 mL): 9.308; 325 mg ASA dissolves? If yes, in 5 or 10 mL? ([2]; Carbonate-NaOH 0.025M, Ad 10 g): YES - 5 mL; Time needed to dissolve (±) ([2]; Carbonate-NaOH 0.025M, 5 mL): 0.5 min; pH after reconstitution ([2]; Carbonate-NaOH 0.025M, 5 mL): 9.233; pH after reconstitution ([2]; NaOH 0.1M): 4.199; 325 mg ASA dissolves? If yes, in 5 or 10 mL? ([2]; NaOH 0.25M): YES - 10 mL; pH after reconstitution ([2]; NaOH 0.25M, 10 mL): 7.099; Time needed to dissolve (±) ([2]; NaOH 0.25M, 10 mL, (3 min) + <1 min): <1 min; 325 mg ASA dissolves? If yes, in 5 or 10 mL? ([2]; NaOH 0.3M): YES - 10 mL; Time needed to dissolve (±) ([2]; NaOH 0.3M, 10 mL, printed as (3 min) + 1 min): 1 min; 325 mg ASA dissolves? If yes, in 5 or 10 mL? ([2]; NaOH 0.4M): YES - 10 mL; pH after reconstitution ([2]; NaOH 0.4M, 10 mL): 12.103; Time needed to dissolve (±) ([2]; NaOH 0.4M, 10 mL, (3 min) + <1 min): <1 min; 325 mg ASA dissolves? If yes, in 5 or 10 mL? ([2]; NaOH 0.5M): YES - 5 mL; Time needed to dissolve (±) ([2]; NaOH 0.5M, 5 mL): <1 min; pH after reconstitution ([2]; NaOH 0.5M, 5 mL): 7.229; 325 mg ASA dissolves? If yes, in 5 or 10 mL? ([2]; NaOH 1M): YES - 5 mL; Time needed to dissolve (±) ([2]; NaOH 1M, 5 mL): <0.25 min; pH after reconstitution ([2]; NaOH 1M, 5 mL): 12.814; 325 mg ASA dissolves? ([2]; TBST 1M, pH of medium 7.574, 10 mL): YES -; Time needed to dissolve (±) ([2]; TBST 1M, 10 mL): 15 min; pH after reconstitution ([2]; TBST 1M, 10 mL): 7.100; Time needed to dissolve (±) ([2]; Tris 0.025M, Ad 10 g, volume as in the dissolves column of the same line): <1 min and 2 min; pH after reconstitution ([2]; Tris 0.1M): 4.195; 325 mg ASA dissolves? ([2]; Tris 0.25M, pH of medium 10.701, 10 mL): YES -; pH after reconstitution ([2]; Tris 0.25M, 10 mL): 7.616; 325 mg ASA dissolves? ([2]; Tris 0.5M, pH of medium 10.814, 5 mL): YES -; Time needed to dissolve (±) ([2]; Tris 0.5M, 5 mL): 3 min; pH after reconstitution ([2]; Tris 0.5M, 5 mL): 7.592; 325 mg ASA dissolves? ([2]; Tris 1M, pH of medium 11.047, 5 mL): YES -; Time needed to dissolve (±) ([2]; Tris 1M, 5 mL): 3 min; pH after reconstitution ([2]; Tris 1M, 5 mL): 8.550; 325 mg ASA dissolves? If yes, in 5 or 10 mL? ([2]; buffer — , strength —, purified water Ad 10 g): Yes - 10 mL; Time needed to dissolve (±) [2, 5]: 30 min; pH after reconstitution [2, 5]: 8.125; Average conc. salicylic acid ([3]; 60 g/L mannitol, 0 hr): 0.262 mg/mL; Average conc. salicylic acid ([3]; 60 g/L mannitol, 72 Hrs): 0.897 mg/mL; Average conc. salicylic acid ([3]; 60 g/L mannitol, 6 hrs): 0.285 mg/mL; Average conc. salicylic acid ([3]; 60 g/L mannitol, 12 hrs): 0.312 mg/mL; Average conc. salicylic acid ([3]; 60 g/L mannitol, 24 hrs): 0.574 mg/mL; Average conc. salicylic acid ([3]; 60 g/L mannitol, 48 hrs): 0.863 mg/mL; Average conc. of salicylic acid ([3]; Acidified 60 g/L mannitol, 0 hr): 0.153 mg/mL; Average conc. of salicylic acid ([3]; Acidified 60 g/L mannitol, 72 Hrs): 0.403 mg/mL; Average conc. of salicylic acid ([3]; Acidified 60 g/L mannitol, 6 hrs): 0.167 mg/mL; Average conc. of salicylic acid ([3]; Acidified 60 g/L mannitol, 12 hrs): 0.218 mg/mL; Average conc. of salicylic acid ([3]; Acidified 60 g/L mannitol, 24 hrs): 0.260 mg/mL; Average conc. of salicylic acid ([3]; Acidified 60 g/L mannitol, 48 hrs): 0.322 mg/mL; Average conc. of salicylic acid ([3]; Acidified Tert-butyl alcohol, 0 hr): 0.237 mg/mL; Average conc. of salicylic acid ([3]; Acidified Tert-butyl alcohol, 72 Hrs): 8.176 mg/mL; Average conc. of salicylic acid ([3]; Acidified Tert-butyl alcohol, 6 hrs): 0.388 mg/mL; Average conc. of salicylic acid ([3]; Acidified Tert-butyl alcohol, 12 hrs): 1.737 mg/mL; Average conc. of salicylic acid ([3]; Acidified Tert-butyl alcohol, 24 hrs): 3.135 mg/mL; Average conc. of salicylic acid ([3]; Acidified Tert-butyl alcohol, 48 hrs): 5.403 mg/mL; Average conc. of salicylic acid ([3]; Acidified ethanol 96%, 0 hr): 0.901 mg/mL; Average conc. of salicylic acid ([3]; Acidified ethanol 96%, 72 Hrs): 1.627 mg/mL; Average conc. of salicylic acid ([3]; Acidified ethanol 96%, 6 hrs): 0.947 mg/mL; Average conc. of salicylic acid ([3]; Acidified ethanol 96%, 12 hrs): 1.130 mg/mL; Average conc. of salicylic acid ([3]; Acidified ethanol 96%, 24 hrs): 1.280 mg/mL; Average conc. of salicylic acid ([3]; Acidified ethanol 96%, 48 hrs): 1.430 mg/mL; Average conc. of salicylic acid ([3]; Acidified water, 0 hr): 0.162 mg/mL; Average conc. of salicylic acid ([3]; Acidified water, 72 Hrs): 0.402 mg/mL; Average conc. of salicylic acid ([3]; Acidified water, 6 hrs): 0.168 mg/mL; Average conc. of salicylic acid ([3]; Acidified water, 12 hrs): 0.217 mg/mL; Average conc. of salicylic acid ([3]; Acidified water, 24 hrs): 0.269 mg/mL; Average conc. of salicylic acid ([3]; Acidified water, 48 hrs): 0.327 mg/mL; Average conc. salicylic acid ([3]; Ethanol 96%, 0 hr): 1.092 mg/mL; Average conc. salicylic acid ([3]; Ethanol 96%, 72 Hrs): 24.768 mg/mL; Average conc. salicylic acid ([3]; Ethanol 96%, 6 hrs): 1.961 mg/mL; Average conc. salicylic acid ([3]; Ethanol 96%, 12 hrs): 3.315 mg/mL; Average conc. salicylic acid ([3]; Ethanol 96%, 24 hrs): 18.682 mg/mL; Average conc. salicylic acid ([3]; Ethanol 96%, 48 hrs): 21.522 mg/mL; Average conc. salicylic acid ([3]; Tert-butyl alcohol, 0 hr): 0.543 mg/mL; Average conc. salicylic acid ([3]; Tert-butyl alcohol, 72 Hrs): 18.135 mg/mL; Average conc. salicylic acid ([3]; Tert-butyl alcohol, 6 hrs): 0.988 mg/mL; Average conc. salicylic acid ([3]; Tert-butyl alcohol, 12 hrs): 1.669 mg/mL; Average conc. salicylic acid ([3]; Tert-butyl alcohol, 24 hrs): 9.261 mg/mL; Average conc. salicylic acid ([3]; Tert-butyl alcohol, 48 hrs): 16.238 mg/mL; Average conc. salicylic acid ([3]; Water, 0 hr): 0.269 mg/mL; Average conc. salicylic acid ([3]; Water, 72 Hrs): 0.904 mg/mL; Average conc. salicylic acid ([3]; Water, 6 hrs): 0.289 mg/mL; Average conc. salicylic acid ([3]; Water, 12 hrs): 0.312 mg/mL; Average conc. salicylic acid ([3]; Water, 24 hrs): 0.574 mg/mL; Average conc. salicylic acid ([3]; Water, 48 hrs): 0.854 mg/mL; % of salicylic acid ([3]; acidified ethanol, up to 72 hours (Limit Not more than 5%)): less than 2%; degradation of acetyl salicylic acid [4]: no degradation
